Literature values in patent US6515198B2, “Use of purinergic receptor modulators and related reagents” (Syntex (U.S.A.) LLC, priority 2000, dated 2003).

System: bladder sensory afferents
Settings: agents capable of desensitizing P2X3 receptor subunit responses

Structure (SMILES) | effect on the activity of bladder sensory afferents
Cc1ccc(C(=O)Nc2ccc(S(=O)(=O)O)c3cc(S(=O)(=O)O)cc(S(=O)(=O)O)c23)cc1NC(=O)c1cccc(NC(=O)Nc2cccc(C(=O)Nc3cc(C(=O)Nc4ccc(S(=O)(=O)O)c5cc(S(=O)(=O)O)cc(S(=O)(=O)O)c45)ccc3C)c2)c1 [suramin] | decrease the activity of bladder sensory afferents
Nc1ncnc2c1ncn2[C@@H]1O[C@H](COP(=O)(O)CP(=O)(O)OP(=O)(O)O)[C@@H](O)[C@H]1O [αβ-ATP] | decrease the activity of bladder sensory afferents
